Like-named read-outs stand apart in the source and are kept apart here.
Tests used:
ryegrass = experiment: Nonselective composition of 1 uracil compound and 2 herbicidally active compounds, plant mortality; type: in vivo; conditions: 480 h, read-out: ryegrass mortality (measured value)
Text: (§1) X is % damage by uracil compound (a) of formula 1 at the rate of application of p kg/ha; Y is % damage by conventional herbicidal compound (b) at the rate of application of q kg/ha; and E is the expected damage caused by compounds (a) and (b) at a rate of application of p and q kg/ha.
(§2) The expected activity for a given combination of two herbicides can be calculated using equation 1 above.

wild amaranth = experiment: as above; type: in vivo; conditions: Amaranthus caudatus, 480 h, read-out: Wild amaranth mortality (measured value)
Text: as §1, §2

Echinochloa crus = conditions: for Echinochloa crus mortality, measured value: 20 days after treatment; for plant mortality, measured value: Echinochloa crus
Text: as §1, §2

Digitaria sanguinalis = conditions: for Digitaria sanguinalis mortality, measured value: 20 days after treatment; for plant mortality, measured value: Digitaria sanguinalis
Text: as §1, §2

Abutilon theophrasti = conditions: for Abutilon theophrasti mortality, measured value: 20 days after treatment; for plant mortality, measured value: Abutilon theophrasti
Text: as §1, §2

Aeschynomene indica = conditions: for Aeschynomene indica mortality, measured value: 20 days after treatment; for plant mortality, measured value: Aeschynomene indica
Text: as §1, §2

Xanthium spinosum = conditions: for Xanthium spinosum mortality, measured value: 20 days after treatment; for plant mortality, measured value: Xanthium spinosum
Text: as §1, §2

**Q.** Which results are given for `CP(=O)(O)CCC(N)C(=O)O` (stereo not shown) [Glufosinate-ammonium]?
**A.** pest or weed control at 150 g/ha (ryegrass): 10%; pest or weed control at 150 g/ha (wild amaranth): 20%

**Q.** How did the pest or weed control at 12.5 g/ha (ryegrass) turn out when `C/C(=N\NC(=O)Nc1cc(F)cc(F)c1)c1ncccc1C(=O)O` [Diflufenzopyr] was run?
**A.** 20%

**Q.** What about the pest or weed control at 12.5 g/ha (wild amaranth) of the same compound?
**A.** 20%

**Q.** With `COCc1cnc(C2=NC(C)(C(C)C)C(=O)N2)c(C(=O)O)c1` (stereo not shown) [Imazamox] as the compound, how does the pest or weed control at 8.3 g/ha (ryegrass) read?
**A.** 30%

**Q.** What about the pest or weed control at 8.3 g/ha (wild amaranth) of the same compound?
**A.** 20%

**Q.** What does the source list for `C[C@@H](Oc1ccc(Oc2ncc(Cl)cc2F)cc1)C(=O)O` [Clodinafop, reference compound]?
**A.** Echinochloa crus mortality, measured value (Echinochloa crus; 15 g/ha): 25%; Echinochloa crus mortality, measured value (Echinochloa crus; 30 g/ha): 53%; Digitaria sanguinalis mortality, measured value (Digitaria sanguinalis; 15 g/ha): 21%; Digitaria sanguinalis mortality, measured value (Digitaria sanguinalis; 30 g/ha): 50%; Abutilon theophrasti mortality, measured value (Abutilon theophrasti; 15 g/ha): 0%; Abutilon theophrasti mortality, measured value (Abutilon theophrasti; 30 g/ha): 0%; Aeschynomene indica mortality, measured value (Aeschynomene indica; 15 g/ha): 0%; Aeschynomene indica mortality, measured value (Aeschynomene indica; 30 g/ha): 0%; Xanthium spinosum mortality, measured value (Xanthium spinosum; 15 g/ha): 0%; Xanthium spinosum mortality, measured value (Xanthium spinosum; 30 g/ha): 0%

**Q.** Which pest or weed control at 500 g/ha (ryegrass; 500 g ai/ha) does the source give for `C[C@H](NC(=O)[C@H](C)NC(=O)[C@@H](N)CCP(C)(=O)O)C(=O)O` [Bilanafos] here?
**A.** 30%

**Q.** And the pest or weed control at 500 g/ha (wild amaranth; 500 g ai/ha)?
**A.** 15%

**Q.** Which pest or weed control at 500 g/ha (ryegrass) does the source give for `CC(C)Oc1cc(-n2nc(C(C)(C)C)oc2=O)c(Cl)cc1Cl` [Oxadiazon] here?
**A.** 30%

**Q.** And the pest or weed control at 500 g/ha (wild amaranth)?
**A.** 30%

**Q.** For `CS(=O)(=O)c1ccc(C(=O)C2C(=O)CCCC2=O)c(Cl)c1` [Sulcotrione], which pest or weed control at 75 g/ha (ryegrass) is on record?
**A.** 20%

**Q.** And the pest or weed control at 75 g/ha (wild amaranth)?
**A.** 20%

**Q.** How did the “Echinochloa crus mortality, measured value” (“Echinochloa crus mortality” for short) (Echinochloa crus; 25 g/ha) turn out when `C[C@@H](Oc1ccc(Oc2nc3ccc(Cl)cc3o2)cc1)C(=O)N(C)c1ccccc1F` [Metamifop, reference compound] was run?
**A.** 11%

**Q.** And the “plant mortality, measured value” (Echinochloa crus; 25 g/ha)?
**A.** 11

**Q.** And the “Echinochloa crus mortality” value (Echinochloa crus; 50 g/ha)?
**A.** 26%

**Q.** What about the “plant mortality, measured value” (Echinochloa crus; 50 g/ha) of the same compound?
**A.** 26

**Q.** What about the “Echinochloa crus mortality” value (Echinochloa crus; 100 g/ha) of the same compound?
**A.** 57%

**Q.** And the “plant mortality, measured value” (Echinochloa crus; 100 g/ha)?
**A.** 57

**Q.** What about the “Digitaria sanguinalis mortality, measured value” (shortened to “Digitaria sanguinalis mortality”) (Digitaria sanguinalis; 25 g/ha) of the same compound?
**A.** 11%

**Q.** And the “plant mortality, measured value” (Digitaria sanguinalis; 25 g/ha)?
**A.** 11

**Q.** And the “Digitaria sanguinalis mortality” value (Digitaria sanguinalis; 50 g/ha)?
**A.** 23%

**Q.** And the “plant mortality, measured value” (Digitaria sanguinalis; 50 g/ha)?
**A.** 23

**Q.** What about the “Digitaria sanguinalis mortality” value (Digitaria sanguinalis; 100 g/ha) of the same compound?
**A.** 48%

**Q.** What about the “plant mortality, measured value” (Digitaria sanguinalis; 100 g/ha) of the same compound?
**A.** 48

**Q.** And the “Abutilon theophrasti mortality, measured value” (“Abutilon theophrasti mortality” for short) (Abutilon theophrasti; 25 g/ha)?
**A.** 0%

**Q.** What about the “plant mortality, measured value” (Abutilon theophrasti; 25 g/ha) of the same compound?
**A.** 0

**Q.** And the “Abutilon theophrasti mortality” value (Abutilon theophrasti; 50 g/ha)?
**A.** 0%

**Q.** What about the “plant mortality, measured value” (Abutilon theophrasti; 50 g/ha) of the same compound?
**A.** 0

**Q.** What about the “Abutilon theophrasti mortality” value (Abutilon theophrasti; 100 g/ha) of the same compound?
**A.** 0%

**Q.** And the “plant mortality, measured value” (Abutilon theophrasti; 100 g/ha)?
**A.** 0

**Q.** And the “Aeschynomene indica mortality, measured value” (shortened to “Aeschynomene indica mortality”) (Aeschynomene indica; 25 g/ha)?
**A.** 0%

**Q.** What about the “plant mortality, measured value” (Aeschynomene indica; 25 g/ha) of the same compound?
**A.** 0

**Q.** And the “Aeschynomene indica mortality” value (Aeschynomene indica; 50 g/ha)?
**A.** 0%

**Q.** What about the “plant mortality, measured value” (Aeschynomene indica; 50 g/ha) of the same compound?
**A.** 0

**Q.** What about the “Aeschynomene indica mortality” value (Aeschynomene indica; 100 g/ha) of the same compound?
**A.** 0%

**Q.** And the “plant mortality, measured value” (Aeschynomene indica; 100 g/ha)?
**A.** 0

**Q.** And the “Xanthium spinosum mortality, measured value” (shortened to “Xanthium spinosum mortality”) (Xanthium spinosum; 25 g/ha)?
**A.** 0%

**Q.** And the “plant mortality, measured value” (Xanthium spinosum; 25 g/ha)?
**A.** 0

**Q.** What about the “Xanthium spinosum mortality” value (Xanthium spinosum; 50 g/ha) of the same compound?
**A.** 0%

**Q.** What about the “plant mortality, measured value” (Xanthium spinosum; 50 g/ha) of the same compound?
**A.** 0

**Q.** What about the “Xanthium spinosum mortality” value (Xanthium spinosum; 100 g/ha) of the same compound?
**A.** 0%

**Q.** And the “plant mortality, measured value” (Xanthium spinosum; 100 g/ha)?
**A.** 0

**Q.** For `CCNc1nc(Cl)nc(NC(C)C)n1` [Atrazine], which pest or weed control at 200 g/ha (ryegrass) is on record?
**A.** 30%

**Q.** What about the pest or weed control at 200 g/ha (wild amaranth) of the same compound?
**A.** 25%

**Q.** `O=C(O)c1nc(Cl)ccc1Cl` [Clopyralid] was tested. Which pest or weed control at 125 g/ha (ryegrass) did it give?
**A.** 0%

**Q.** And the pest or weed control at 125 g/ha (wild amaranth)?
**A.** 10%

**Q.** For `CCC(C)(CC)c1cc(NC(=O)c2c(OC)cccc2OC)on1` [Isoxaben], which pest or weed control at 31 g/ha (ryegrass) is on record?
**A.** 0%

**Q.** What about the pest or weed control at 31 g/ha (wild amaranth) of the same compound?
**A.** 30%

**Q.** Which “plant mortality, measured value” (Echinochloa crus; 16 g/ha) does the source give for `C=CCOC(=O)C(C)(C)OC(=O)c1cc(-n2c(=O)cc(C(F)(F)F)n(C)c2=O)ccc1Cl` [(Butafenacil] here?
**A.** 5

**Q.** What about the “plant mortality, measured value” (Digitaria sanguinalis; 16 g/ha) of the same compound?
**A.** 5

**Q.** And the “plant mortality, measured value” (Abutilon theophrasti; 16 g/ha)?
**A.** 51

**Q.** And the “plant mortality, measured value” (Aeschynomene indica; 16 g/ha)?
**A.** 67

**Q.** And the “plant mortality, measured value” (Xanthium spinosum; 16 g/ha)?
**A.** 54

**Q.** `O=C(O)COc1ccc(Cl)cc1Cl` [2,4-D)] was tested. Which “Data (measured value) Echinochloa crus” value (Echinochloa crus; 200 g/ha) did it give?
**A.** 0

**Q.** What about the “Data (measured value) Echinochloa crus” value (Echinochloa crus; 400 g/ha) of the same compound?
**A.** 0

**Q.** What about the “Data (measured value) Digitaria sanguinalis” value (Digitaria sanguinalis; 200 g/ha) of the same compound?
**A.** 0

**Q.** And the “Data (measured value) Digitaria sanguinalis” value (Digitaria sanguinalis; 400 g/ha)?
**A.** 0

**Q.** What about the “Data (measured value) Abutilon theophrasti” value (Abutilon theophrasti; 200 g/ha) of the same compound?
**A.** 21

**Q.** What about the “Data (measured value) Abutilon theophrasti” value (Abutilon theophrasti; 400 g/ha) of the same compound?
**A.** 47

**Q.** And the “Data (measured value) Aeschynomene indica” value (Aeschynomene indica; 200 g/ha)?
**A.** 24

**Q.** What about the “Data (measured value) Aeschynomene indica” value (Aeschynomene indica; 400 g/ha) of the same compound?
**A.** 51

**Q.** And the “Data (measured value) Xanthium spinosum” value (Xanthium spinosum; 200 g/ha)?
**A.** 22

**Q.** What about the “Data (measured value) Xanthium spinosum” value (Xanthium spinosum; 400 g/ha) of the same compound?
**A.** 50

— patent US10206399B2, “Herbicidal composition comprising uracil compound as active ingredient” (Dongbu Farm Hannong Co., Ltd., priority 2012, dated 2019)
